Data published in patent US20190016689A1, “NOVEL FLUORINATED QUINAZOLINE DERIVATIVES AS EGFR INHIBITORS” (TRILLIUM THERAPEUTICS INC., priority 2016, published 2019).

Key:
[1] = Log D determination (1-octanol/buffer); format: physicochemical
Method: Prepare the stock solutions of test compounds and control compound progesterone in DMSO at the concentration of 30 mM. If test compound could not be dissolved completely, make a 10 mM stock solution with DMSO.
Place 5 μL of stock solution (30 mM) or 15 μL of stock solution (10 mM) of each sample in order into their proper 96-well rack. […] Add one stir stick to each vial and seal using a molded PTFE/Silicone plug. […] After completion of incubation, remove the stir sticks using a big magnet. Then centrifuge the samples at 25° C. at 20,000 g for 20 minutes to separate the phases, and use pipette and syringe to remove the upper (1-octanol) and lower (buffer) phases to the empty tubes, respectively. Take aliquots of 5 μL from upper phases followed by addition of 495 μL of methanol. Vortex for 1 minute, and then take aliquots of 50 μL from the diluent followed by addition of 450 μL of methanol. And take aliquots of 50 μL from lower phases followed by addition of 450 μL of methanol. A certain proportion of ultrapure water may be used according to the peak shape. The dilution factor may be changed according to the Log D value and the LC/MS signal response.

[2] = tested on: NCI/ADR-RES; assay: NCI screening panel (SRB); format: cell-based; settings: Homo sapiens, NCI/ADR-RES (Ovarian), 48 h; for CC50: read-out: LC50 (the source's name)
[3] = target: T1, EPHA6 (Homo sapiens, UniProt Q9UF33); assay: Kinase assays, selectivity panel (qPCR); settings: read-out: % Control @ 300 nM
T1 sequence (Q9UF33 23-1036): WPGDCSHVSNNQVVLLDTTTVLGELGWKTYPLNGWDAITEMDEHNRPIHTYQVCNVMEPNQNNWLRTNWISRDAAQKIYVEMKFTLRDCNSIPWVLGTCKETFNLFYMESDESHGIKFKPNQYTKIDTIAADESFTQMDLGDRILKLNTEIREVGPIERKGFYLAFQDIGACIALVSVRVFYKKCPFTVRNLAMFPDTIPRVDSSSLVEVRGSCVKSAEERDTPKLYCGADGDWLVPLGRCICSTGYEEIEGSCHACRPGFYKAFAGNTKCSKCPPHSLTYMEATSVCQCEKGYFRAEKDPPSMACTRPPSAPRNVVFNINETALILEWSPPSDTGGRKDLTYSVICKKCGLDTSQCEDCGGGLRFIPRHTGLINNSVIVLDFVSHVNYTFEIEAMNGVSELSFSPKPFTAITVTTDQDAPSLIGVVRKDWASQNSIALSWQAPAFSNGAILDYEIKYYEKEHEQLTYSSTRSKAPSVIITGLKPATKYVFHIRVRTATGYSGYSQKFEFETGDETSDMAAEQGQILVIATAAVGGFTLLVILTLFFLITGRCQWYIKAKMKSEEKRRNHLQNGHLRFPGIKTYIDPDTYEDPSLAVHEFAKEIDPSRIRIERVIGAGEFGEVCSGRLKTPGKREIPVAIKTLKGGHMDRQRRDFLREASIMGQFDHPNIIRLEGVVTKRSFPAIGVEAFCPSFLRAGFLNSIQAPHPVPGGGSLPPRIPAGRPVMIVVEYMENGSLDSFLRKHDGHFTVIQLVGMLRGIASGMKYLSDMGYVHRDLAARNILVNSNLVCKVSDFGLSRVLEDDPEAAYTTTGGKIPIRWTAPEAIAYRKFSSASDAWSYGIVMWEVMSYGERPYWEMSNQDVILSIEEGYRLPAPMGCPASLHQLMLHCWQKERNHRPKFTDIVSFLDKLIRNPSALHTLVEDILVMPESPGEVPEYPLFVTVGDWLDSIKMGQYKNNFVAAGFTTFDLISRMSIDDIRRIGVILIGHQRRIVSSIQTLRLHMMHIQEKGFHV

[4] = tested on: SR; assay: NCI screening panel (SRB); format: cell-based; settings: Homo sapiens, SR (Leukemia), 48 h; for CC50: read-out: LC50 (the source's name)
[5] = target: EGFR (T790M) (Homo sapiens, UniProt P00533, T790M); assay: Kinase assays, selectivity panel (qPCR); settings: read-out: % Control @ 300 nM
EGFR (T790M), sequence (P00533 25-1210 T790M): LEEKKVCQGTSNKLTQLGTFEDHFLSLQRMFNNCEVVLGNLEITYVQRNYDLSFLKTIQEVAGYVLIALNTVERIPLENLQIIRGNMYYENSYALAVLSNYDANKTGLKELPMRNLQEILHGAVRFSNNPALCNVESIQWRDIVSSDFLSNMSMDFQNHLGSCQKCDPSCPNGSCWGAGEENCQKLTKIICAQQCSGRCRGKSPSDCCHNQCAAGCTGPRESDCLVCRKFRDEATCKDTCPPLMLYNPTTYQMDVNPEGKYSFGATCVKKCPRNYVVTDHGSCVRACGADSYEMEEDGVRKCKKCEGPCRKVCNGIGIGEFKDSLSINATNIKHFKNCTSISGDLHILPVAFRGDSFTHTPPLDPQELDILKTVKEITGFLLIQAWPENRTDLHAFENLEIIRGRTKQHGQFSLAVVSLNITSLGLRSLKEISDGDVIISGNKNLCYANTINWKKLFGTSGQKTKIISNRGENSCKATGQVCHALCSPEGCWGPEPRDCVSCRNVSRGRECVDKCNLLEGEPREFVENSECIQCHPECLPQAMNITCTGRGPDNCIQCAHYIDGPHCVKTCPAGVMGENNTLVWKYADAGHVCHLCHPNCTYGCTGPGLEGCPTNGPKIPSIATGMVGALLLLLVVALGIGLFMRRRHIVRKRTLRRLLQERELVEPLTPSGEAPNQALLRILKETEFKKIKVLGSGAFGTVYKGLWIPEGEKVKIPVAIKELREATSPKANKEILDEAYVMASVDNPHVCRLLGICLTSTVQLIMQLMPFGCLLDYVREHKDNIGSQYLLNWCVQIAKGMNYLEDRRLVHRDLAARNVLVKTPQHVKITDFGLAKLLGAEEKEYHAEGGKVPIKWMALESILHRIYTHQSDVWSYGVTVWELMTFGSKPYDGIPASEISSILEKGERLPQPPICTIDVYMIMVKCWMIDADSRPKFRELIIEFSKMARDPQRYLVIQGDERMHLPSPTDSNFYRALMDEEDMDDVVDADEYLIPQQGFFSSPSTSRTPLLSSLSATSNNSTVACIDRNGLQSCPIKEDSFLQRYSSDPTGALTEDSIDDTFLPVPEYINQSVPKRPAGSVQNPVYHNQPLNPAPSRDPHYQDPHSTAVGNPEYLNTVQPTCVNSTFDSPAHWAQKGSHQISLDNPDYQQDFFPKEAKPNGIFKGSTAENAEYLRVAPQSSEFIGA

[6] = target: EGFR (G719S) (Homo sapiens, UniProt P00533, G719S); assay: Kinase assays, selectivity panel (qPCR); settings: read-out: % Control @ 300 nM
EGFR (G719S), sequence (P00533 25-1210 G719S): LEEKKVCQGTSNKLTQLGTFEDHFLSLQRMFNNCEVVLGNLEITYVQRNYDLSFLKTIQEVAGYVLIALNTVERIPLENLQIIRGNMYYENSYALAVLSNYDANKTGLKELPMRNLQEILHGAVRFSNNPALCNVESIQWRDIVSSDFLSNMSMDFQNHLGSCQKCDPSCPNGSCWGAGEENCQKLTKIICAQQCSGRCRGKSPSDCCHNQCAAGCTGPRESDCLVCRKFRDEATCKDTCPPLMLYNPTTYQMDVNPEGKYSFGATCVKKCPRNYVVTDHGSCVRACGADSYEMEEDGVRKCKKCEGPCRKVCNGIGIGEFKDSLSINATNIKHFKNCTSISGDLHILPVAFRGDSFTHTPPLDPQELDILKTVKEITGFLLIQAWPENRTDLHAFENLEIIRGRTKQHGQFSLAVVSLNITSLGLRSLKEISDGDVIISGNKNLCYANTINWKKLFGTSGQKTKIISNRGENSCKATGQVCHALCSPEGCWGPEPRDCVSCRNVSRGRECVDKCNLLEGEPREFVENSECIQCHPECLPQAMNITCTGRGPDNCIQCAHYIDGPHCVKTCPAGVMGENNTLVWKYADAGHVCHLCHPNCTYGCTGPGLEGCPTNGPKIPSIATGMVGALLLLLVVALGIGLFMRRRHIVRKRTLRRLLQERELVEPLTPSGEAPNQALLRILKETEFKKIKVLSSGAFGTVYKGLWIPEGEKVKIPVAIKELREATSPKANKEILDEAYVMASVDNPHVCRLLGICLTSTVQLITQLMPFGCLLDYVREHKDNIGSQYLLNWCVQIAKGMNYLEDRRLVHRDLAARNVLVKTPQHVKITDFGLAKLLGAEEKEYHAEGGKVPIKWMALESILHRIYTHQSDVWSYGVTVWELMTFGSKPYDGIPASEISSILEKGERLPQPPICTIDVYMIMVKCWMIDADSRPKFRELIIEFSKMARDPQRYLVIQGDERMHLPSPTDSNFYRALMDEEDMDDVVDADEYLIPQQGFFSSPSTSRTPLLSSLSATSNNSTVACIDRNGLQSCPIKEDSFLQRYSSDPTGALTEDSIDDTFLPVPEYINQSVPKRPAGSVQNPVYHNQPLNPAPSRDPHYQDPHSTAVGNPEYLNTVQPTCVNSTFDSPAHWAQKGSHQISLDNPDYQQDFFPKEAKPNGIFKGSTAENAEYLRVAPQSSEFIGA

[7] = tested on: NCI-H23; assay: NCI screening panel (SRB); format: cell-based; settings: Homo sapiens, NCI-H23 (NSCLC), 48 h; for CC50: read-out: LC50 (the source's name)
[8] = tested on: HL-60(TB); assay: NCI screening panel (SRB); format: cell-based; settings: Homo sapiens, HL-60(TB) (Leukemia), 48 h; for CC50: read-out: LC50 (the source's name)
[9] = tested on: ACHN; assay: NCI screening panel (SRB); format: cell-based; settings: Homo sapiens, ACHN (Renal), 48 h; for CC50: read-out: LC50 (the source's name)
[10] = tested on: EGFR (L747-T751del, Sins); assay: Kinase assays, selectivity panel (qPCR)
[11] = tested on: NCI-H460; assay: NCI screening panel (SRB); format: cell-based; settings: Homo sapiens, NCI-H460 (NSCLC), 48 h; for CC50: read-out: LC50 (the source's name)
[12] = tested on: NCI-H226; assay: NCI screening panel (SRB); format: cell-based; settings: Homo sapiens, NCI-H226 (NSCLC), 48 h; for CC50: read-out: LC50 (the source's name)
[13] = tested on: SW-620; assay: NCI screening panel (SRB); format: cell-based; settings: Homo sapiens, SW-620 (Colon), 48 h; for CC50: read-out: LC50 (the source's name)
[14] = target: EGFR (L861Q) (Homo sapiens, UniProt P00533, L861Q); assay: Kinase assays, selectivity panel (qPCR); settings: read-out: % Control @ 300 nM
EGFR (L861Q), sequence (P00533 25-1210 L861Q): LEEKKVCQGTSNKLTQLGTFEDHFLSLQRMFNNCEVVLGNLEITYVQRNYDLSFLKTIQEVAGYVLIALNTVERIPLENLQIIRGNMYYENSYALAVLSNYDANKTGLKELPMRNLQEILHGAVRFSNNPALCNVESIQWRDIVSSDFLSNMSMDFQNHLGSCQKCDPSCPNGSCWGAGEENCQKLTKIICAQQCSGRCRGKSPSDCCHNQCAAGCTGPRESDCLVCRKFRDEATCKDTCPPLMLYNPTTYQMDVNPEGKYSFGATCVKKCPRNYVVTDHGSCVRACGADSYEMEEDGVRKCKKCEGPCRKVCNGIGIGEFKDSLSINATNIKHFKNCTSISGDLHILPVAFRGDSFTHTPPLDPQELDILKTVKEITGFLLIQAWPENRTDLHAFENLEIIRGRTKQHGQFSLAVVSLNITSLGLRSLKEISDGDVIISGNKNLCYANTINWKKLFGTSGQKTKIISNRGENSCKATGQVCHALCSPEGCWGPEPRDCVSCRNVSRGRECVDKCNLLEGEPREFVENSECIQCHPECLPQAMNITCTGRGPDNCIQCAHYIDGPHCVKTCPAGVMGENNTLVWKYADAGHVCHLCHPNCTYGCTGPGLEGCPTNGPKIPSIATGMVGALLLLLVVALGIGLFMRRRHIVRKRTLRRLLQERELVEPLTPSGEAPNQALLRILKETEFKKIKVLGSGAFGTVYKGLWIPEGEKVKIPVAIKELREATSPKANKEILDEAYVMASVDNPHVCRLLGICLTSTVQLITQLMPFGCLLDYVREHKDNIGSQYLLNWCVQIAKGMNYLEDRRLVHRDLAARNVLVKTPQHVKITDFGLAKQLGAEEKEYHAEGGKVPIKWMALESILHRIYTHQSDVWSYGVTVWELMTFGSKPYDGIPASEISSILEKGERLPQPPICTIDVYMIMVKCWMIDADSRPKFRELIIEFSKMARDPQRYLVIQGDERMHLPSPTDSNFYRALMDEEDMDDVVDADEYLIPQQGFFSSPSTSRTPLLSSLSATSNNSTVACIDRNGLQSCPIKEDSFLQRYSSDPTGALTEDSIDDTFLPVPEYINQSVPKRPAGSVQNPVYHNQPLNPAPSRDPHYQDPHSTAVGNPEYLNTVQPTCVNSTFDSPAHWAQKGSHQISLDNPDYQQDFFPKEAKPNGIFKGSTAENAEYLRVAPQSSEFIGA

[15] = tested on: RPMI-8226; assay: NCI screening panel (SRB); format: cell-based; settings: Homo sapiens, RPMI-8226 (Leukemia), 48 h; for CC50: read-out: LC50 (the source's name)
[16] = tested on: SF-268; assay: NCI screening panel (SRB); format: cell-based; settings: Homo sapiens, SF-268 (CNS), 48 h; for CC50: read-out: LC50 (the source's name)
[17] = tested on: A498; assay: NCI screening panel (SRB); format: cell-based; settings: Homo sapiens, A498 (Renal), 48 h; for CC50: read-out: LC50 (the source's name)

| SMILES | logD ([1]; pH 2.0) | logD ([1]; pH 7.4) | GI50 [2] | CC50 [2] | remaining activity at 0.3 µM [3] | GI50 [4] | CC50 [4] | remaining activity at 0.3 µM [5] | remaining activity at 0.3 µM [6] | GI50 [7] | CC50 [7] | GI50 [8] | CC50 [8] | GI50 [9] | CC50 [9] | % Control @ 300 nM [10] | GI50 [11] | CC50 [11] | GI50 [12] | CC50 [12] | also measured |
| --- | --- | --- | --- | --- | --- | --- | --- | --- | --- | --- | --- | --- | --- | --- | --- | --- | --- | --- | --- | --- | --- |
| CN(C)C/C=C/C(=O)Nc1cc2c(Nc3ccc(F)c(Cl)c3)ncnc2cc1O[C@H]1CCOC1 [Afatinib, reference compound] | -2.46 | 3.18 | – | – | – | – | – | – | – | – | – | – | – | – | – | – | – | – | – | – | – |
| CN(C)C/C=C/C(=O)Nc1cc2c(Nc3cccc(Cl)c3F)ncnc2cc1OCCOC(F)F.O=C(O)/C=C\C(=O)O [Example I-5-MA, (E)-N-[4-(3-chloro-2-fluoro-anilino)-7-[2-(difluoromethoxy)ethoxy]quinazolin-6-yl]-4-(dimethylamino)but-2-enamide dimaleic acid salt] | -2.17 | 3.2 | – | – | – | – | – | – | – | – | – | – | – | – | – | – | – | – | – | – | – |
| CN(C)C/C=C/C(=O)Nc1cc2c(Nc3ccc(F)c(Cl)c3F)ncnc2cc1OCCOC(F)F.O=C(O)/C=C\C(=O)O.O=C(O)/C=C\C(=O)O [Example I-9-MA, (E)-N-[4-(3-chloro-2,4-difluoro-anilino)-7-[2-(difluoromethoxy)ethoxy]quinazolin-6-yl]-4-(dimethylamino)but-2-enamide di-maleic acid salt] | – | – | 839 nM | > 100000 nM | 3.5% | 439 nM | 59200 nM | 0.1% | 0.15% | 1380 nM | 15400 nM | 1730 nM | 32200 nM | < 10 nM | 6010 nM | 8.6% | 2560 nM | 62000 nM | 1710 nM | 9700 nM | GI50 [13]: 1520 nM; CC50 [13]: 52700 nM; remaining activity at 0.3 µM [14]: 0.1%; GI50 [15]: 1290 nM; CC50 [15]: > 100000 nM; GI50 [16]: 747 nM; CC50 [16]: 27300 nM; GI50 [17]: 319 nM; CC50 [17]: 6000 nM |
| O=C(/C=C/CN1CCCCC1)Nc1cc2c(Nc3ccc(F)c(Cl)c3F)ncnc2cc1OCCOC(F)F.O=C(O)/C=C\C(=O)O.O=C(O)/C=C\C(=O)O [Example I-10-MA, (E)-N-[4-(3-chloro-2,4-difluoro-anilino)-7-[2-(difluoromethoxy)ethoxy]quinazolin-6-yl]-4-(1-piperidyl)but-2-enamide di-maleic acid salt] | – | – | 1000 nM | > 100000 nM | 3.9% | 816 nM | > 100000 nM | 0.75% | 0% | 2090 nM | > 100000 nM | 1750 nM | 30800 nM | < 10 nM | 15000 nM | 0% | 2340 nM | 54400 nM | 1770 nM | > 100000 nM | GI50 [13]: 1810 nM; CC50 [13]: 34700 nM; remaining activity at 0.3 µM [14]: 0.75%; GI50 [15]: 1640 nM; CC50 [15]: 58900 nM; GI50 [16]: 1250 nM; CC50 [16]: 41700 nM; GI50 [17]: 313 nM; CC50 [17]: 5920 nM |
